# Measured values reported in patent US12139492B2 (Endotarget Inc., priority 2021, dated 2024).
# pIC50: −log10 of the molar value. Where two headings read alike, the source gives them in different places.
# How the values were obtained:
# Mino cells = experiment: Antiproliferative effect, MTS cell viability assay, Mino cells; type: cell-based; details: Homo sapiens, Mino mantle cell lymphoma cells, read-out: IC50 (anti-proliferation) Mino cells
# Outline: (§1)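 MTS read-out, A490 of formazan from metabolically active cells; compound 0–10 μM (0, 0.001, 0.01, 0.1, 1, 10 μM), 72 h exposure.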
# JeKo-1 cells = experiment: Antiproliferative effect, MTS cell viability assay, JeKo-1 cells; type: cell-based; details: Homo sapiens; JeKo-1 mantle cell lymphoma cells; read-out: IC50 (anti-proliferation) JeKO-1 cells
# Outline: as §1
# BTK = BTK (Homo sapiens, UniProt Q06187); experiment: Degradation of BTK protein in Namalwa cells (Western blot; DC50, Dmax); details: for DC50: cell line not given; for degradation of BTK protein: Namalwa B lymphocyte cells, various concentrations, 24 hours, Western blot
# BTK, sequence (Q06187 whole entry): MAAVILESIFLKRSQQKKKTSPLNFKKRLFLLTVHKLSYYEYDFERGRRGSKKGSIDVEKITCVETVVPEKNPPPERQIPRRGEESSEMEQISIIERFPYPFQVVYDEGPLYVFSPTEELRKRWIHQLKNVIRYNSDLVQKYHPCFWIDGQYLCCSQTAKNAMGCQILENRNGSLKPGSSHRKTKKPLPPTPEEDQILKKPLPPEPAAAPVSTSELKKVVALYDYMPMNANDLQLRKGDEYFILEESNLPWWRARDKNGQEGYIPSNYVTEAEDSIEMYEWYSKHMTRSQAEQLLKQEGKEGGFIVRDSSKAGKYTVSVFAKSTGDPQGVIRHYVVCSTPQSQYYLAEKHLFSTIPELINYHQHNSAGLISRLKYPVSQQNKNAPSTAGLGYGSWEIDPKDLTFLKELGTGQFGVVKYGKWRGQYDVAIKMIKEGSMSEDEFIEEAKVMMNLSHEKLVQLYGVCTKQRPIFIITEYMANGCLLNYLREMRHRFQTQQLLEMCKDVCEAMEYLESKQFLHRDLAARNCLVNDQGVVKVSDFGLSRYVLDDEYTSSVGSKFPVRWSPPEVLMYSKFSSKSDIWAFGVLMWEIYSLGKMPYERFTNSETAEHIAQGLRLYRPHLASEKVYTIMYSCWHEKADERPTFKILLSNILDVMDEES
# [1] = read-out: DC50 (BTK degradation), concentration giving 50% reduction of BTK expression level
# [2] = read-out: Dmax (BTK degradation)
SMILES,pIC50 (Mino cells; MINO),pIC50 (JeKo-1 cells),Dmax (BTK) [%],DC50 (BTK; BTK degradation) [µM],pIC50 (Mino cells),degradation of BTK protein (BTK),DC50 (BTK; [1]) [µM],Dmax (BTK; [2]) [%]
"Nc1ncnc2c1c(-c1ccc(Oc3ccccc3)cc1)nn2[C@@H]1CCCN(C2CCN(C(=O)N3CCC(CCCC4CCN(c5ccc6c(c5)CN(C5CCC(=O)NC5=O)C6=O)CC4)CC3)CC2)C1 (stereo partly drawn) [Compound 196, 3-(5-(4-(3-(1-((R)-3-(4-amino-3-(4-phenoxyphenyl)-1H-pyrazolo[3,4-d]pyrimidin-1-yl)-[1,4′-bipiperidine]-1′-carbonyl)piperidin-4-yl)propyl)piperidin-1-yl)-1-oxoisoindolin-2-yl)piperidine-2,6-dione]",5.00 to 6.00,5.00 to 6.00,> 75,0.01 to 0.05,–,–,–,–
"Nc1ncnc2c1c(-c1ccc(Oc3ccccc3)cc1)nn2C1CCN(CC2CCN(CC3CCN(c4ccc5c(c4)CN(C4CCC(=O)NC4=O)C5=O)CC3)C2)CC1 (stereo not drawn) [Compound 446, 3-(5-(4-((3-((4-(4-amino-3-(4-phenoxyphenyl)-1H-pyrazolo(3,4-d)pyrimidin-1-yl)piperidin-1-yl)methyl)pyrrolidin-1-yl)methyl)piperidin-1-yl)-1-oxoisoindolin-2-yl)piperidine-2,6-dione]",–,5.00 to 6.00,–,–,5.00 to 6.00,dose-dependent degradation,0.01 to 0.05,> 90
"Nc1ncnc2c1c(-c1ccc(Oc3ccccc3)cc1)nn2C1CCN(CC2CCN(CC3CCN(c4ccc5c(c4)C(=O)N(C4CCC(=O)NC4=O)C5=O)CC3)C2)CC1 (stereo not drawn) [Compound 445, 5-(4-((3-((4-(4-amino-3-(4-phenoxyphenyl)-1H-pyrazolo(3,4-d)pyrimidin-1-yl)piperidin-1-yl)methyl)pyrrolidin-1-yl)methyl)piperidin-1-yl)-2-(2,6-dioxopiperidin-3-yl)isoindoline-1,3-dione]",5.00 to 6.00,5.00 to 6.00,–,–,–,dose-dependent degradation,0.01 to 0.05,> 90
"Nc1ncnc2c1c(-c1ccc(Oc3ccccc3)cc1)nn2[C@@H]1CCCN(CC2CCN(c3ccc(N4CCC(=O)NC4=O)cc3)CC2)C1 [Compound 529, (R)-1-(4-(4-((3-(4-amino-3-(4-phenoxyphenyl)-1H-pyrazolo[3,4-d]pyrimidin-1-yl)piperidin-1-yl)methyl)piperidin-1-yl)phenyl)dihydropyrimidine-2,4(1H,3H)-dione]",< 5.00,< 5.00,–,–,–,–,0.01 to 0.05,> 50
"Nc1ncnc2c1c(-c1ccc(Oc3ccccc3)cc1)nn2C1CCN(CC2CCN(CC3CCN(c4ccc5c(c4)oc(=O)n5C4CCC(=O)NC4=O)CC3)CC2)CC1 (stereo not drawn) [Compound 544, 3-(6-(4-((4-((4-(4-amino-3-(4-phenoxyphenyl)-1H-pyrazolo[3,4-d]pyrimidin-1-yl)piperidin-1-yl)methyl)piperidin-1-yl)methyl)piperidin-1-yl)-2-oxobenzo[d]oxazol-3(2H)-yl)piperidine-2,6-dione]",5.00 to 6.00,5.00 to 6.00,–,–,–,–,0.01 to 0.05,> 90
"Nc1ncnc2c1c(-c1ccc(Oc3ccccc3)cc1)nn2C1CCN(C2CCN(C(=O)N3CCN(CCCN4CCN(c5ccc6c(c5)CN(C5CCC(=O)NC5=O)C6=O)CC4)CC3)CC2)CC1 (stereo not drawn) [Compound 258, 3-(5-(4-(3-(4-(4-(4-amino-3-(4-phenoxyphenyl)-1H-pyrazolo[3,4-d]pyrimidin-1-yl)-[1,4′-bipiperidine]-1′-carbonyl)piperazin-1-yl)propyl)piperazin-1-yl)-1-oxoisoindolin-2-yl)piperidine-2,6-dione]",5.00 to 6.00,< 5.00,> 75,0.01 to 0.05,–,–,–,–
"Nc1ncnc2c1c(-c1ccc(Oc3ccccc3)cc1)nn2C1CCN(CCN2CCC(Sc3ccc4c(c3)C(=O)N(C3CCC(=O)NC3=O)C4=O)CC2)CC1 (stereo not drawn) [Compound 471, 5-((1-(2-(4-(4-amino-3-(4-phenoxyphenyl)-1H-pyrazolo[3,4-d]pyrimidin-1-yl)piperidin-1-yl)ethyl)piperidin-4-yl)thio)-2-(2,6-dioxopiperidin-3-yl)isoindoline-1,3-dione]",5.00 to 6.00,5.00 to 6.00,–,–,–,–,0.01 to 0.05,> 75
